Data set [1] is described as follows: In vivo pharmacokinetic evaluation in mouse. On the set-up: species or system female balb/c nude mice. The settings on record: female, balb/c nude, plasma, 3 mg/kg IV.
Data set [2] concerns OVCAR-3 xenografts. As to the kind of experiment: 28 day in vivo efficacy in OVCAR-3 xenografts. The settings on record: 10 and 30 mg/kg QD, 28 days. The arrangement: species or system female NOD SCID mice. On the procedure:
Experiments were performed in female NOD SCID mice (GenPharmatech Co.). Animals were allowed to acclimate for 7 days before the study. The general health of the animals were evaluated by a veterinarian, and complete health checks were performed prior to the study. General procedures for animal care and housing were in accordance with the standard, Commission on Life Sciences, National Research Council, Standard Operating Procedures (SOPs) of Pharmaron, Inc. The mice were kept in laminar flow rooms at constant temperature and humidity with 3-5 mice in each cage. Animals were housed in polycarbonate cages which had dimensions of 300×180×150 mm^3 and in an environmentally monitored, well-ventilated room maintained at a temperature of 23±3° C. and a relative humidity of 40%-70%. Fluorescent lighting provided illumination approximately 12 hours per day. […]
The OVCAR-3 (ATCC) tumor cell lines were maintained in vitro as a monolayer in RPMI 1640 medium supplemented with 20% heat inactivated FBS, at 37° C. in an atmosphere of 5% CO2 in air. The tumor cells were sub-cultured, not exceeding 4-5 passages, and cells growing in an exponential growth phase were harvested and counted for tumor inoculation. […]
The measurement of tumor size was conducted with a caliper and recorded twice per week. […]

Data set [3] addresses T1, KIF18A (Homo sapiens, UniProt Q8NI77).
T1 construct: A solution of KIF18A (0.4 nM, 5 μL/well; 1-367) in assay buffer
T1 sequence (Q8NI77 1-367): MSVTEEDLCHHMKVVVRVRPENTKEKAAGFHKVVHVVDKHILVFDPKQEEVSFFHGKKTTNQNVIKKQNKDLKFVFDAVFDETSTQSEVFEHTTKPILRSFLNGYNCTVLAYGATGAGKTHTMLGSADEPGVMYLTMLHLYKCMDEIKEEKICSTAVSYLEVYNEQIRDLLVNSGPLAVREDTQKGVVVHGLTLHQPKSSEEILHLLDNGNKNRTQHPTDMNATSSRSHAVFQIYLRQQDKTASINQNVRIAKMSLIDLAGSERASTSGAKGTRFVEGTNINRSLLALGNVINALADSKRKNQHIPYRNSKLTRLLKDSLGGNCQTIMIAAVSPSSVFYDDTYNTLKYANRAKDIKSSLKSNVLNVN
As to the kind of experiment: KIF18A Biochemical Assay (ATPase, ADP-Glo).

A short description of data set [4]: Caco-2 permeation assay (bidirectional permeability). It is filed as in vitro ADME. The settings on record: human, Caco-2, pH 7.4. On the procedure:
Samples were analyzed through LC/MS/MS for estimating the apparent permeability coefficients (Papp) of compounds across Caco-2 cell monolayers. Caco-2 cells (American Type Culture Collection) were incubated and seeded onto HTS Transwell-96 Well Permeable Supports (Corning Corporation) for 14 days using a cell medium consisting of Dulbecco's Modified Eagle's Medium (DMEM) with high glucose and L-glutamine supplemented with 10% FBS, 1× penicillin-streptomycin mixture and 1×non-essential amino acids (NEAA). Cell monolayer integrity was measured using an automated tissue resistance measuring system (World Precision Instruments). Stock solutions of compounds and control compounds in DMSO were diluted with HBSS (10 mM HEPES, pH 7.4) to reach a final concentration of 5 μM with a final concentration of DMSO<0.1%. HBSS was then removed after 30 minutes of preincubation, and 75 μL of test compound was added to the apical compartment of the Transwell insert. The basolateral compartment was filled with 235 μL of HBSS (10 mM HEPES, pH 7.4) containing 2% BSA. Rate of drug transport in the basolateral to apical direction was obtained by adding 235 μL of test compound to the receiver plate wells (basolateral compartment) and filling with 75 μL of HBSS (10 mM HEPES, pH 7.4) containing 2% BSA. Time 0 samples were prepared by transferring 25 μL of […] working solution to wells of the 96-deepwell plate containing 25 μL HBSS (10 mM HEPES and 2% BSA, pH 7.4), followed by the addition 200 μL of cold methanol containing appropriate internal standards (100 nM alprazolam, 200 nM labetalol, 200 nM caffeine and 200 nM diclofenac). After incubating at 37° C. for 2 h, 25 μL samples from donor sides (apical compartment) were transferred to a 96-well plate containing 25 μL HBSS (10 mM HEPES and 2% BSA, pH 7.4). 25 μL samples from receiver sides (basolateral compartment) were removed and transferred to a new plate containing 25 μL HBSS (10 mM HEPES, pH 7.4). 200 μL of cold methanol containing internal standards (100 nM alprazolam, 200 nM labetalol, 200 nM caffeine and 200 nM diclofenac) was added to terminate the reaction. Samples were vortexed for 5 minutes and then centrifuged at 3,220 g for 40 minutes. An aliquot of 100 μL of the supernatant is mixed with 100 μL of ultra-pure water for LC-MS/MS analysis. All incubations are performed in duplicate. Solutions were discarded from the transwell plate. 100 μL Lucifer Yellow solution ([…] in HBSS) was added to each well of transwell insert and 300 μL of HBSS to each well of receiver. After incubating at 37° C. for 30 minutes, 80 μL was aliquoted from each well of apical and basolateral sides to a solid black plate. The plate was then read with Tecan Infinite™ M 200 (Excitation/Emission wavelength […]).
All calculations were carried out using Microsoft Excel. Peak areas were determined from extracted ion chromatograms. The leakage of Lucifer Yellow, in unit of percentage (%), can be calculated using the following equation: […]
LY leakage of <1% is acceptable to indicate the well-qualified Caco-2 monolayers. The apparent permeability coefficient (Papp), in units of centimeter per second, can be calculated for Caco-2 drug transport assays using the following equation: […]
Where VA is the volume (in mL) in the receiver well (0.235 mL for Ap→Bl flux and 0.075 mL for Bl→Ap flux), Area is the surface area of the membrane (0.143 cm^2 for HTS Transwell-96 Well Permeable Supports), and time is the total transport time in seconds. The efflux ratio can be determined using the following equation: […]
Where Papp (B-A) indicates the apparent permeability coefficient in basolateral to apical direction, and Papp (A-B) indicates the apparent permeability coefficient in apical to basolateral direction.
The recovery can be determined using the following equation: […]

The subject of data set [5] is OVCAR-3 cells. Briefly: In vitro anti-proliferative activity assay in cancer cell line OVCAR-3 (CTG). It is filed as cell-based. The following applies: 7-day assay, read-out: OVCAR-3 cellular antiproliferation assay IC50.

The values below come from patent US20260062430A1, “INHIBITORS OF KIF18A AND USES THEREOF” (ACCENT THERAPEUTICS, INC., priority 2022, published 2026).

Read-outs that look alike come from different tables or passages of the source.

With `Cc1cc(NC(=O)c2ccc(NS(=O)(=O)CCO)cc2N2CC[C@@]3(C(F)F)C[C@H]3C2)nc(N2CCC(F)(F)CC2)n1` (single isomer, unassigned) [Example 29b], in data set [1], the clearance turned out to be 3.3 mL/min/kg. Moreover, the Tumor growth result in data set [2] was “significant reduction in tumor growth in a dose-dependent manner”.
Turning to `Cc1cc(NC(=O)c2c(F)cc(NS(=O)(=O)CCO)cc2N2CC[C@@]3(C)C[C@H]3C2)nc(N2CCC(F)(F)CC2)n1` (single isomer, unassigned) [Example 31b], the IC50 in data set [3] was under 100 nM.
The molecule `Cc1cc(NC(=O)c2ccc(NS(=O)(=O)CCO)cc2N2CC[C@@]3(F)CC[C@H]3C2)nc(N2CCC(F)(F)CC2)n1` (single isomer, unassigned) [Example 50b] returned a clearance in data set [1] of 0.74 mL/min/kg.
Same read-out and setting: the figure for `Cc1cc(NC(=O)c2ccc(NS(=O)(=O)CCO)cc2N2CC[Si](C)(C)CC2)nc(C2CCC(F)(F)CC2)n1` [Example 1, N-(2-(4,4-difluorocyclohexyl)-6-methylpyrimidin-4-yl)-2-(4,4-dimethyl-1,4-azasilinan-1-yl)-4-((2-hydroxyethyl)sulfonamido)benzamide] is 3.6 mL/min/kg; for `Cc1cc(NC(=O)c2ccc(NS(=O)(=O)CCO)cc2N2CC[Si](C)(C)CC2)nc(N2CCC(F)(F)CC2)n1` [Example 9, N-[2-(4,4-difluoropiperidin-1-yl)-6-methylpyrimidin-4-yl]-2-(4,4-dimethyl-1,4-azasilinan-1-yl)-4-(2-hydroxyethanesulfonamido)benzamide] it is 1.7 mL/min/kg.
For the molecule `C[Si]1(C)CCN(c2cc(NS(=O)(=O)CCO)ccc2C(=O)Nc2ccnc(OCCC(F)(F)F)n2)CC1` [Example 10], the efflux ratio at 2 h, 5 μM in data set [4] was under 10.
For the molecule `Cc1cc(NC(=O)c2ccc(NS(=O)(=O)CCO)cc2N2CC[C@]3(C)C[C@@H]3C2)nc(C2CCC(F)(F)CC2)n1` [Example 62], the IC50 in data set [3] was under 100 nM; in data set [5] (Homo sapiens, OVCAR-3, 168 h), under 100 nM. Moreover, the efflux ratio at 2 h, 5 μM in data set [4] was under 10.
For `Cc1cc(NC(=O)c2ccc(NS(=O)(=O)CCO)cc2N2CC[C@@]3(C)C[C@H]3C2)nc(C2CCC(F)(F)CC2)n1` [Example 63], the IC50 in data set [3] was under 100 nM; in data set [5] (Homo sapiens, OVCAR-3, 168 h), under 100 nM.
On to `O=C(Nc1ccnc(N2CCC(F)(F)CC2)n1)c1c(F)cc(NS(=O)(=O)CCO)cc1N1CC[C@@]2(C(F)F)C[C@H]2C1` [Example 84], for which, in data set [5], the IC50 lay within 100 to 500 nM. Further, the efflux ratio at 2 h, 5 μM in data set [4] was under 10.
Consider `Cc1cc(NC(=O)c2ccc(NS(=O)(=O)CCO)cc2N2CC[C@@]3(C(F)(F)F)C[C@H]3C2)nc(N2CCC(F)(F)CC2)n1` [Example 85], for which the IC50 was under 100 nM in data set [3] and 100 to 500 nM in data set [5] (Homo sapiens, OVCAR-3, 168 h).
In the case of `Cc1cc(NC(=O)c2ccc(NS(=O)(=O)CCO)cc2N2CC[C@]3(C(F)(F)F)C[C@@H]3C2)nc(N2CCC(F)(F)CC2)n1` [Example 86], the IC50 in data set [3] is under 100 nM; in data set [5] (Homo sapiens, OVCAR-3, 168 h) it was 100 to 500 nM. For the same molecule, the efflux ratio at 2 h, 5 μM in data set [4] was under 10.
For `Cc1cc(NC(=O)c2ccc(NS(=O)(=O)NCCO)cc2N2CC[Si](C)(C)CC2)nc(C2CCC(F)(F)CC2)n1` [Example 117], the IC50 in data set [3] was in the range of 100 to 500 nM; in data set [5] (Homo sapiens, OVCAR-3, 168 h) it was 100 to 500 nM. Moreover, the efflux ratio at 2 h, 5 μM in data set [4] is under 10.
As to `Cc1cc(NC(=O)c2ccc(NS(=O)(=O)N(C)CCO)cc2N2CC[Si](C)(C)CC2)nc(C2CCC(F)(F)CC2)n1` [Example 134], the IC50 in data set [3] is under 100 nM; in data set [5] (Homo sapiens, OVCAR-3, 168 h) it was 100 to 500 nM. Further, in data set [4], the efflux ratio at 2 h, 5 μM is under 10.
